From patent US20140128352A1, “COMPOUNDS AND METHODS FOR MODULATING MITOCHONDRIAL METABOLISM AND REACTIVE OXYGEN SPECIES PRODUCTION” (Buck Institute for Research on Aging, priority 2012, published 2014)

Test system: site IQ
Assay: ROS production with NADH and cytochrome b566 reduction states, mitochondria respiring on CI substrates
Assay type: biochemical, rat
Details: 2.5 uM, ATP synthesis restricted
Excerpt: The contribution of site IQ to total ROS production under “normal” circumstances (e.g. when electrons enter CI primarily in the forward direction) remains contentious. […] A possible explanation for this difference is the leak of electrons from site IQ as both Q-pool reduction and PMF remained high in the absence of energy production. To test if site IQ is indeed active under such conditions, we used Compound No. 4 to non-invasively probe mitochondrial ROS production in this system. […] It is believed that even under extreme conditions in which forward electron flow through CI dominates, this provides evidence that site IQ can be a relevant source of ROS.
The rate of ROS production from site IF is linked to the reduction state of the NAD(P)H pool in the mitochondrial matrix (Treberg et al., 2011; Quinlan et al, submitted). Therefore, to evaluate the mechanism of action of putative IF ROS inhibitors, the effect of candidate compounds on the relationship between site IF ROS production and NAD(P)H reduction was tested. NAD(P)H reduction was monitored in isolated mitochondria (0.3 mg/mL) on a Varian Cary Eclipse fluorimeter (ex 365/em 450 nm) as described by Treberg et al., 2011 except the reduction state was slowly titrated with increasing rotenone (0.08 to 4 uM) in the presence of saturating malate (5 mM) and the uncoupler FCCP. Glutamate (5 mM) was added to achieve 100% reduction. […]

## O=[N+]([O-])c1ccc(Oc2ccc(S(=O)(=O)NC3CCCCC3)cc2)cc1 [Compound 4]
  observed ROS production and NADH / b566 reduction states: lowered the observed ROS production without any changes to the NADH or b566 reduction states
